Patent US20240109972A1, “ANTIBODY AND TAXANE COMBINATION THERAPY” (Genmab A/S, priority 2020, published 2024)

Tests used:
interferon-gamma (IFN-γ) = assay: Serum interferon-γ levels in cancer patients after GEN1046 (MSD multiplex immunoassay); assay type: in vivo, human
Procedure: Serum levels of IFN-γ were measured by a Meso Scale Discovery (MSD) multiplex immune-assay (cat. no. K15209G) following the manufacturer's instructions.

metastatic NSCLC = assay: GEN1046 in combination with docetaxel in metastatic NSCLC subjects, efficacy (RECIST v1.1); assay type: in vivo, human; settings: six subjects dosed with GEN1046 and 75 mg/m^2 Docetaxel
Procedure: Docetaxel was administered at a dose of 55 mg/m^2 or 75 mg/m^2 depending on the number of prior Dose Limiting Toxicities observed. The maximum tested dose of docetaxel was be 75 mg/m^2.
The following inclusion criteria applied to the combination arm (NSCLC): GEN1046 in combination with docetaxel: • NSCLC subjects of any histology may be enrolled. Subjects with a histological or cytological diagnosis of non-squamous NSCLC must not have an EGFR-sensitizing mutation and/or ALK translocation/ROS1 rearrangement. EGFR sensitizing mutations are those mutations that are amenable to treatment with an approved TKI. Documentation of EGFR and ALK status should be available per local assessment.
In one of the six patients the first post-baseline scan was indicative of response according to RECIST Criteria v1.1.

## GEN1046: PD-L1×4-1BB bispecific antibody: PD-L1-547-FEAL combined with CD137-009-HC7LC2-FEAR (SEQ ID NOs: 1, 5, 21, 19; 8, 12, 22, 20)
interferon-gamma (IFN-γ); IFNγ and proliferating Ki67+ effector memory CD8+ T cells
  Dose levels with higher magnitude and consistent modulation of peripheral pharmacodynamic endpoints: ≥ 200 mg
interferon-gamma (IFN-γ); first treatment cycle
  Dose levels with maximal increases of IFN-γ: 50 mg and 80 mg
interferon-gamma (IFN-γ); first treatment cycle, across all dose levels tested
  Increase of IFN-γ levels: more than 2 fold
Metastatic NSCLC
  Patients whose first post-baseline scan was indicative of response (RECIST v1.1): one
